# Reference: paper PMC6753678, “Fueling Open Innovation for Malaria Transmission-Blocking Drugs: Hundreds of Molecules Targeting Early Parasite Mosquito Stages” (Frontiers in Microbiology, 2019)
# Read-outs that look alike come from different tables or passages of the source.
# Columns and labels:
# [1] = system: 3D7-strain P. falciparum asexual parasites; assay: P. falciparum asexual growth inhibition assay (Pf GIA); format: cell-based, Plasmodium falciparum; details: dose response confirmation; read-out: Pf asexual growth inhibition assays IC50
# In short: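 3D7 parasites at 0.25% parasitemia, 2% hematocrit were exposed to compounds in dose response for 72 h at 37°C under 5% CO2, 5% O2. Viability read as parasite LDH activity (nitro blue tetrazolium, A650) after freeze-thaw; inhibition scaled to chloroquine (50 μM) and DMSO controls, mean of three biological replicates.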
# HepG2 cells = assay: HepG2 cytotoxicity assay; details: for IC50: read-out: HepG2 cytotoxicity assay IC50, dose response confirmation; for Pb ODA (this manuscript) HepG2 cytoxicity: HepG2 cytotoxicity listed with the Pb ODA data set (this manuscript)
# In short: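 Here viability after a 48 h compound incubation (37°C, humidified 5% CO2) is measured by fluorescence and expressed as percent inhibition, with doxorubicin at 50 μM and DMSO as the bounding controls.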
# [2] = system: P. berghei ookinete development; details: for % inhibition, Replicate A / % inhibition, Replicate B: primary screen at 1 μM
# [3] = HepG2 values of the three screens unified
# [4] = read-out: Pb ODA IC50, this manuscript
# [5] = read-out: Pb Ookinete development assay IC50, dose response confirmation
# [6] = unified HepG2 value across the three screens
# [7] = read-out: Pb ODA (this manuscript) IC50, P. berghei ookinete development assay, this manuscript
Structure (SMILES),IC50 [1] [nM],"HepG2 cytoxicity (Pb ODA, this manuscript) (HepG2 cells) [µM]",Unified cytotox (HepG2 cells; [3]) [µM],IC50 (HepG2 cells) [nM],"Is compound selective in assay? Pb ODA active? ([2]; 1: YES, 0: NO)","% inhibition, Replicate A [2] [%]","% inhibition, Replicate B [2] [%]","IC50 [2, 4] [nM]","IC50 [2, 5] [nM]",Pb ODA (this manuscript) HepG2 cytoxicity (HepG2 cells) [µM],Is compound selective in assay? Pb ODA active? [2],Unified cytotox (HepG2 cells; [6]) [µM],"IC50 [2, 7] [nM]"
Cc1ccccc1Cn1ccc2c3c(N)nc(N)nc3ccc21 [TCMDC-137812],< 0.3,0.00828,0.00828,8.28,0 (0: NO),41.40,62.61,430,429,,,,
CCN(CC)S(=O)(=O)n1ncc2c3c(N)nc(N)nc3ccc21.Cl [TCMDC-137302],79,,,53.1,,53.62,57.06,,2000,0.0531,0 (key: 1: YES; 0: NO),,
Cc1[nH]c(C)c(C2CCC(c3ccc(Cl)cc3)CC2)c(=O)c1Cl (centres unmarked) [TCMDC-137423],44,,,2240,1 (1: YES),93.67,102.07,75.5,75,,,2.24,
Cc1ccccc1-c1cc(=O)c2cc(NC(=O)c3cccs3)ccc2o1 [TCMDC-124947],408,,,100000,1 (1: YES),33.03,54.68,4150,4150,,,100.00,
COc1ccc2nccc(N3CCC(CCNCc4ccc5c(n4)NC(=O)CS5)CC3)c2n1.Cl [TCMDC-141944],160,14.79,14.79,14800,0 (0: NO),58.34,37.24,8880,8880,,,,
CCN(CC)c1nc(N)c2c(N)nc3c(c2c1C#N)C(=O)CN3Cc1ccccc1 [TCMDC-125024],38,,,100000,1 (1: YES),101.60,105.52,620,618,,,100.00,
O=C(NCc1ccco1)c1ccc(CN2CCN(C(c3ccccc3)c3ccccc3)CC2)cc1 [TCMDC-140763],1260,,,52500,1 (1: YES),50.96,28.39,1480,1480,,,52.48,
Cc1[nH]c(C)c(-c2ccc(OCc3cc(F)cc(F)c3)nc2)c(=O)c1Br [TCMDC-135683],188,25.41,25.41,25400,1 (1: YES),82.45,85.99,410,409,,,,
CCC(CC)n1c(C)cc2c3c(N)nc(N)nc3ccc21 [TCMDC-137283],< 0.2,0.0017,0.0017,1.7,0 (0: NO),93.53,103.53,850,846,,,,
COc1cc(NC(=O)Nc2ccc(Br)cc2C(=O)Nc2ccc(Br)cc2)cc(OC)c1OC [TCMDC-139733],2090,,,100000,1 (1: YES),44.63,66.05,6380,6380,,,100.00,
Cc1ccc2c(=O)c3cc(C)ccc3[nH]c2c1 [TCMDC-138194],176,,,63800,1 (1: YES),98.56,107.67,220,217,,,63.83,
Cc1[nH]c(C)c(-c2ccc(C(=O)c3ccc(Cl)cc3)cc2)c(=O)c1Br [TCMDC-137407],56,,,44700,,83.43,91.19,,78,44.67,1 (key: 1: YES; 0: NO),,80
Br.COc1ccc(CC(C)CON2C(N)=NC(N)=NC2(C)C)cc1 (centres unmarked) [TCMDC-131722],< 0.2,,,1,,50.32,49.29,,4860,0.001,0 (key: 1: YES; 0: NO),,4860
COc1ccc2nc(-c3cc(-c4ccc(NC(=O)C(C)C)cc4)cnc3N)[nH]c2c1 [TCMDC-135322],277,,,8610,1 (1: YES),29.63,78.93,420,423,,,8.61,
CCOC(=O)N1CCN(CCCCNc2c3ccc(Cl)cc3nc3ccc(OC)cc23)CC1.Cl [TCMDC-137579],30,,,5500,,26.46,54.23,,4490,5.50,0 (key: 1: YES; 0: NO),,4490
O=C(Nc1ccc(OC2CCN(Cc3ccc(F)cc3)C2)c(Cl)c1)c1ccc(F)cc1.O=C(O)C(F)(F)F (centres unmarked) [TCMDC-133763],878,,,24600,0 (0: NO),33.23,66.02,2950,2950,,,24.55,
Cc1[nH]c(C)c(-c2ccc(CCc3ccc(N)cc3)cc2)c(=O)c1Cl [TCMDC-135678],279,,100.00,100000,1 (1: YES),46.90,71.02,1090,1090,,,,
CCCCOc1cc2ncc(C(=O)OCC)c(O)c2cc1OCCCC [TCMDC-137523],63,,,100000,1 (1: YES),74.60,95.02,2190,2190,,,100.00,
Cc1[nH]c(C)c(-c2ccc(S(=O)(=O)c3ccc(Cl)cc3)cc2)c(=O)c1Br [TCMDC-137414],66,,,100000,,109.11,112.52,,112,100.00,1 (key: 1: YES; 0: NO),,110
